Reference: the supplement of paper PMC10307832

What was measured:
Experiment in all cases: relative viability (nuclei count vs DMSO), 5 days (fraction); higher = more cells survive
NCI-H1915 = tested on: NCI-H1915
Summary of the method: (§1)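 Relative viability equals treated-well nuclei counts divided by vehicle-well nuclei counts. Counts came from 4× images of lung cancer cell lines grown in 1536-well plates for 5 days after pin-tool dosing on the day after seeding. Dosing used one drug alone or a fixed anchor-drug dose plus five library-drug doses (not always all listed) in √10 steps, and values are medians of duplicate plates.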

NCI-H2228 = tested on: NCI-H2228
Summary of the method: as §1

SK-MES-1 = tested on: SK-MES-1
Summary of the method: as §1

NCI-H2347 = tested on: NCI-H2347
Summary of the method: as §1

NCI-H1437 = tested on: NCI-H1437
Summary of the method: as §1

NCI-H1755 = tested on: NCI-H1755
Summary of the method: as §1

SK-LU-1 = tested on: SK-LU-1
Summary of the method: as §1

NCI-H1944 = tested on: NCI-H1944
Summary of the method: as §1

NCI-H1793 = tested on: NCI-H1793
Summary of the method: as §1

LXF-289 = tested on: LXF-289
Summary of the method: as §1

NCI-H1395 = tested on: NCI-H1395
Summary of the method: as §1

CAL-12T = tested on: CAL-12T
Summary of the method: as §1

EMC-BAC-2 = tested on: EMC-BAC-2
Summary of the method: as §1

NCI-H1651 = tested on: NCI-H1651
Summary of the method: as §1

H3255 = tested on: H3255
Summary of the method: as §1

NCI-H2087 = tested on: NCI-H2087
Summary of the method: as §1

LC-2-ad = tested on: LC-2-ad
Summary of the method: as §1

NCI-H2085 = tested on: NCI-H2085
Summary of the method: as §1

COR-L 105 = tested on: COR-L 105
Summary of the method: as §1

LK-2 = tested on: LK-2
Summary of the method: as §1

EKVX = tested on: EKVX
Summary of the method: as §1

PC-3 [JPC-3] = tested on: PC-3 [JPC-3]
Summary of the method: as §1

Cc1cnc(-c2cnc(NCCNc3ccc(C#N)cn3)nc2-c2ccc(Cl)cc2Cl)[nH]1 + CC1(C)CCC(c2ccc(Cl)cc2)=C(CN2CCN(c3ccc(C(=O)NS(=O)(=O)c4ccc(N[C@H](CCN5CCOCC5)CSc5ccccc5)c(S(=O)(=O)C(F)(F)F)c4)cc3)CC2)C1 [Navitoclax] (partner 0.5 µM)
relative viability (NCI-H1915; first compound 0.08 µM): 0.85 | relative viability (NCI-H1915; first compound 0.8 µM): 0.704 | relative viability (NCI-H1915; first compound 2.53 µM): 0.778 | relative viability (NCI-H2228; first compound 0.08 µM): 0.854 | relative viability (NCI-H2228; first compound 0.253 µM): 1.14 | relative viability (NCI-H2228; first compound 0.8 µM): 0.796 | relative viability (NCI-H2228; first compound 2.53 µM): 0.536 | relative viability (SK-MES-1; first compound 0.08 µM): 1.19 | relative viability (SK-MES-1; first compound 0.253 µM): 1.14 | relative viability (SK-MES-1; first compound 2.53 µM): 1.14 | relative viability (NCI-H2347; first compound 0.08 µM): 0.947 | relative viability (NCI-H2347; first compound 0.253 µM): 0.625 | relative viability (NCI-H2347; first compound 0.8 µM): 0.832 | relative viability (NCI-H2347; first compound 2.53 µM): 0.857 | relative viability (NCI-H1437; first compound 0.08 µM): 1.1 | relative viability (NCI-H1437; first compound 0.253 µM): 1.05 | relative viability (NCI-H1437; first compound 0.8 µM): 1.12 | relative viability (NCI-H1437; first compound 2.53 µM): 1.12 | relative viability (NCI-H1755; first compound 0.08 µM): 1.07 | relative viability (NCI-H1755; first compound 0.253 µM): 0.866 | relative viability (NCI-H1755; first compound 0.8 µM): 1.01 | relative viability (NCI-H1755; first compound 2.53 µM): 0.989 | relative viability (SK-LU-1; first compound 0.08 µM): 0.976 | relative viability (SK-LU-1; first compound 0.253 µM): 0.807 | relative viability (SK-LU-1; first compound 0.8 µM): 1.2 | relative viability (SK-LU-1; first compound 2.53 µM): 0.692 | relative viability (NCI-H1944; first compound 0.08 µM): 1.03 | relative viability (NCI-H1944; first compound 0.8 µM): 0.992 | relative viability (NCI-H1944; first compound 2.53 µM): 1 | relative viability (NCI-H1793; first compound 0.08 µM): 0.399 | relative viability (NCI-H1793; first compound 0.253 µM): 0.446 | relative viability (NCI-H1793; first compound 0.8 µM): 0.283 | relative viability (NCI-H1793; first compound 2.53 µM): 0.354 | relative viability (LXF-289; first compound 0.08 µM): 0.934 | relative viability (LXF-289; first compound 0.253 µM): 0.873 | relative viability (LXF-289; first compound 0.8 µM): 0.924 | relative viability (LXF-289; first compound 2.53 µM): 1.01 | relative viability (NCI-H1395; first compound 0.08 µM): 1.25 | relative viability (NCI-H1395; first compound 0.253 µM): 1.15 | relative viability (NCI-H1395; first compound 0.8 µM): 1.19 | relative viability (NCI-H1395; first compound 2.53 µM): 1.15 | relative viability (CAL-12T; first compound 0.08 µM): 1.29 | relative viability (CAL-12T; first compound 0.253 µM): 1.15 | relative viability (CAL-12T; first compound 0.8 µM): 1.18 | relative viability (CAL-12T; first compound 2.53 µM): 1.06 | relative viability (EMC-BAC-2; first compound 0.08 µM): 1.17 | relative viability (EMC-BAC-2; first compound 0.253 µM): 1.05 | relative viability (EMC-BAC-2; first compound 0.8 µM): 1.18 | relative viability (EMC-BAC-2; first compound 2.53 µM): 1.18 | relative viability (NCI-H1651; first compound 0.08 µM): 1.09 | relative viability (NCI-H1651; first compound 0.253 µM): 0.874 | relative viability (NCI-H1651; first compound 0.8 µM): 1.06 | relative viability (NCI-H1651; first compound 2.53 µM): 1.2 | relative viability (H3255; first compound 0.08 µM): 0.413 | relative viability (H3255; first compound 0.253 µM): 0.424 | relative viability (H3255; first compound 0.8 µM): 0.508 | relative viability (H3255; first compound 2.53 µM): 0.361 | relative viability (NCI-H2087; first compound 0.08 µM): 0.88 | relative viability (NCI-H2087; first compound 0.253 µM): 0.966 | relative viability (NCI-H2087; first compound 0.8 µM): 1.03 | relative viability (NCI-H2087; first compound 2.53 µM): 0.967 | relative viability (LC-2-ad; first compound 0.08 µM): 0.53 | relative viability (LC-2-ad; first compound 0.8 µM): 0.452 | relative viability (LC-2-ad; first compound 2.53 µM): 0.5 | relative viability (NCI-H2085; first compound 0.08 µM): 1.17 | relative viability (NCI-H2085; first compound 0.253 µM): 1.15 | relative viability (NCI-H2085; first compound 0.8 µM): 1.03 | relative viability (NCI-H2085; first compound 2.53 µM): 1.16 | relative viability (COR-L 105; first compound 0.08 µM): 0.875 | relative viability (COR-L 105; first compound 0.253 µM): 0.686 | relative viability (COR-L 105; first compound 0.8 µM): 1.54 | relative viability (COR-L 105; first compound 2.53 µM): 0.558 | relative viability (LK-2; first compound 0.08 µM): 1.01 | relative viability (LK-2; first compound 0.253 µM): 0.9 | relative viability (LK-2; first compound 0.8 µM): 0.872 | relative viability (LK-2; first compound 2.53 µM): 1.28 | relative viability (EKVX; first compound 0.08 µM): 0.715 | relative viability (EKVX; first compound 0.253 µM): 0.844 | relative viability (EKVX; first compound 0.8 µM): 0.905 | relative viability (EKVX; first compound 2.53 µM): 0.814 | relative viability (PC-3 [JPC-3]; first compound 0.08 µM): 0.81 | relative viability (PC-3 [JPC-3]; first compound 0.253 µM): 0.71 | relative viability (PC-3 [JPC-3]; first compound 0.8 µM): 0.809 | relative viability (PC-3 [JPC-3]; first compound 2.53 µM): 0.729

Cc1cnc(-c2cnc(NCCNc3ccc(C#N)cn3)nc2-c2ccc(Cl)cc2Cl)[nH]1 + NC(=O)Nc1cc(-c2cccc(F)c2)sc1C(=O)N[C@H]1CCCNC1 [AZD7762] (partner 0.2 µM)
relative viability (NCI-H1915; first compound 0.08 µM): 0.692 | relative viability (NCI-H1915; first compound 0.8 µM): 0.675 | relative viability (NCI-H1915; first compound 2.53 µM): 0.644 | relative viability (NCI-H2347; first compound 0.08 µM): 0.873 | relative viability (NCI-H2347; first compound 0.253 µM): 0.612 | relative viability (NCI-H2347; first compound 0.8 µM): 0.689 | relative viability (NCI-H2347; first compound 2.53 µM): 0.79 | relative viability (NCI-H1437; first compound 0.08 µM): 1.17 | relative viability (NCI-H1437; first compound 0.253 µM): 1.06 | relative viability (NCI-H1437; first compound 0.8 µM): 1.06 | relative viability (NCI-H1437; first compound 2.53 µM): 1.01 | relative viability (NCI-H1755; first compound 0.08 µM): 0.459 | relative viability (NCI-H1755; first compound 0.253 µM): 0.445 | relative viability (NCI-H1755; first compound 0.8 µM): 0.404 | relative viability (NCI-H1755; first compound 2.53 µM): 0.443 | relative viability (NCI-H1944; first compound 0.08 µM): 0.668 | relative viability (NCI-H1944; first compound 0.8 µM): 0.488 | relative viability (NCI-H1944; first compound 2.53 µM): 0.521 | relative viability (NCI-H1793; first compound 0.08 µM): 0.735 | relative viability (NCI-H1793; first compound 0.253 µM): 0.379 | relative viability (NCI-H1793; first compound 0.8 µM): 0.385 | relative viability (NCI-H1793; first compound 2.53 µM): 0.461 | relative viability (LXF-289; first compound 0.08 µM): 1.16 | relative viability (LXF-289; first compound 0.253 µM): 1.05 | relative viability (LXF-289; first compound 0.8 µM): 1.18 | relative viability (LXF-289; first compound 2.53 µM): 1.19 | relative viability (NCI-H1395; first compound 0.08 µM): 0.425 | relative viability (NCI-H1395; first compound 0.253 µM): 0.43 | relative viability (NCI-H1395; first compound 0.8 µM): 0.4 | relative viability (NCI-H1395; first compound 2.53 µM): 0.374 | relative viability (CAL-12T; first compound 0.08 µM): 0.586 | relative viability (CAL-12T; first compound 0.253 µM): 0.567 | relative viability (CAL-12T; first compound 0.8 µM): 0.544 | relative viability (CAL-12T; first compound 2.53 µM): 0.693 | relative viability (EMC-BAC-2; first compound 0.08 µM): 1.24 | relative viability (EMC-BAC-2; first compound 0.253 µM): 1.21 | relative viability (EMC-BAC-2; first compound 0.8 µM): 1.04 | relative viability (EMC-BAC-2; first compound 2.53 µM): 1.01 | relative viability (NCI-H1651; first compound 0.08 µM): 0.506 | relative viability (NCI-H1651; first compound 0.253 µM): 0.406 | relative viability (NCI-H1651; first compound 0.8 µM): 0.454 | relative viability (NCI-H1651; first compound 2.53 µM): 0.459 | relative viability (H3255; first compound 0.08 µM): 0.996 | relative viability (H3255; first compound 0.253 µM): 0.887 | relative viability (H3255; first compound 0.8 µM): 0.879 | relative viability (H3255; first compound 2.53 µM): 0.888 | relative viability (NCI-H2087; first compound 0.08 µM): 1.3 | relative viability (NCI-H2087; first compound 0.8 µM): 1.3 | relative viability (NCI-H2087; first compound 2.53 µM): 1.17 | relative viability (LC-2-ad; first compound 0.08 µM): 0.851 | relative viability (LC-2-ad; first compound 0.8 µM): 0.687 | relative viability (LC-2-ad; first compound 2.53 µM): 0.841 | relative viability (NCI-H2085; first compound 0.08 µM): 1.02 | relative viability (NCI-H2085; first compound 0.253 µM): 0.77 | relative viability (NCI-H2085; first compound 0.8 µM): 0.901 | relative viability (NCI-H2085; first compound 2.53 µM): 1.05 | relative viability (LK-2; first compound 0.08 µM): 0.436 | relative viability (LK-2; first compound 0.253 µM): 0.421 | relative viability (LK-2; first compound 2.53 µM): 0.393 | relative viability (EKVX; first compound 0.08 µM): 0.731 | relative viability (EKVX; first compound 0.253 µM): 0.698 | relative viability (EKVX; first compound 0.8 µM): 0.588 | relative viability (EKVX; first compound 2.53 µM): 0.655 | relative viability (PC-3 [JPC-3]; first compound 0.08 µM): 0.805 | relative viability (PC-3 [JPC-3]; first compound 0.253 µM): 0.761 | relative viability (PC-3 [JPC-3]; first compound 0.8 µM): 0.799 | relative viability (PC-3 [JPC-3]; first compound 2.53 µM): 0.725
